Laboratory results reported in patent publication US20210330611A1, “THERAPY FOR NEUROLOGICAL DISEASES/DISORDERS” (priority 2020, published 2021).
Structures can show the parent of a compound that is named as a salt. Where two headings read alike, the source gives them in different places.

Tests used:
[1] = system: fibrin-induced microglia activation; test: Image-based assay of fibrin-induced microglia activation (HTS and dose response); type: cell-based, rat; conditions: for IC50 / inhibition at 10 µM: Rattus norvegicus, Microglia; for inhibition at 10 µM: read-out: Fibrin % inhibition
in vitro [2] = conditions: rat, Cell Toxicity IC50 (uM) [cFib assay]
primary rat microglia [3] = test: Cell toxicity (dead cells, size <150 μm2) in coated fibrin (cFib) assay; conditions: for Fibrin % cell toxicity: primary microglia HTS, fibrin stimulation;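 for Fibrin % cell toxicity: share of dead cells sized under 150 µm2 at 10 µM in fibrin-stimulated microglia HTS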
[4] = system: LPS-induced microglia activation; test: Image-based assay of LPS-induced microglia activation (HTS and dose response); type: cell-based, rat; conditions: Rattus norvegicus, Microglia; for inhibition at 10 µM: read-out: LPS % inhibition
[5] = system: fibrin- and LPS-induced microglia activation; test: cells; type: cell-based, rat; conditions: for inhibition at 10 µM: Rattus norvegicus; for Activity: Table 7, fib = fibrin, LPS, tox = toxicity
in vitro [6] = conditions: rat
primary rat microglia [7] = test: Cell toxicity (dead cells, size <150 μm2) in LPS assay; conditions: for LPS % cell toxicity: primary microglia HTS, LPS stimulation; for IC50: read-out: Cell Toxicity IC50 (uM) [LPS assay], LPS assay
[8] = 48 h, Table 1, dose response 0.001-20 μM, triplicates, primary rat microglia, 48 h, read-out: Fibrin IC50
[9] = Table 3, read-out: Fibrin IC50 (uM) (Suppl. Table 7)
[10] = dose response, fibrin-induced microglia activation, read-out: Fibrin IC50
[11] = fibrin-induced microglia activation, dose response, read-out: Fibrin IC50 (uM) (Suppl. Table 7)
[12] = primary microglia HTS, fibrin stimulation, increased cell size (>800 μm^2) as marker of activation
[13] = decreased size (<150 μm^2) as marker of toxicity
[14] = 48 h, Table 1, dose response 0.001-20 μM, triplicates, primary rat microglia, 48 h, read-out: LPS IC50
[15] = 48 h, primary microglia HTS, LPS stimulation, increased cell size (>800 μm^2) as marker of activation
[16] = LPS-induced microglia activation, dose response, read-out: LPS IC50 (uM) (Suppl. Table 7)
[17] = Table 3, read-out: LPS IC50 (uM) (Suppl. Table 7)
[18] = dose response, LPS-induced microglia activation, read-out: LPS IC50
[19] = HTS of 1907 compounds, quadrant by fibrin and LPS inhibition
[20] = Microglia, Table 3, read-out: Cherry-picked Hit (Suppl. Table 7)
[21] = Microglia, HTS hit classification, read-out: Hit
[22] = quadrant by fibrin and LPS inhibition in HTS of 1907 compounds
[23] = Table 6, read-out: Fibrin IC50 (uM) (Suppl. Table 7)
[24] = Table 6, read-out: LPS IC50 (uM) (Suppl. Table 7)
[25] = hit classification in microglia HTS, read-out: Cherry-picked Hit (Suppl. Table 7)

Row | Compound | IC50 [1, 8] | IC50 [1, 9] | IC50 [1, 10] | IC50 [1, 11] | inhibition at 10 µM [1, 12] | IC50 (in vitro [2]; Table 3) | IC50 (in vitro [2]; cFib assay) | Fibrin % cell toxicity (primary rat microglia [3]; [13]) | IC50 [4, 14] | inhibition at 10 µM [4, 15] | IC50 [4, 16] | IC50 [4, 17] | IC50 [4, 18] | Quadrant (FIG. 5b) [5, 19] | inhibition at 10 µM [5, 20] | inhibition at 10 µM [5, 21] | Quadrant (FIG. 5b) ([5]; Table 1, screen at 10 μM) | Quadrant (FIG. 5b) [5, 22] | IC50 (in vitro [6]) | LPS % cell toxicity (primary rat microglia [7]; [13]) | other results
1 | NCCc1cc[nH]n1 [Betazole hydrochloride, reference compound] | 12 µM | 12 µM | 12 µM | 12 µM | 59% | > 20 µM | > 20 µM | 1% | > 20 µM | 38% | > 20 µM | > 20 µM | > 20 µM | Q3 | > 50% | > 50% | Q3 | Q3 | > 20 µM | 1% | Fibrin Selectivity [1]: 2; Fibrin Selectivity (LOG10) [1]: 0.22; Quadrant (FIG. 5b) ([5]; Table 3, screen at 10 μM): Q3; IC50 (primary rat microglia [7]): > 20 µM
2 | CN(C)[C@@H]1C(O)=C(C(N)=O)C(=O)[C@@]2(O)C(O)=C3C(=O)c4c(O)ccc(Cl)c4[C@@H](O)[C@H]3C[C@@H]12 [Demeclocycline hydrochloride, reference compound] | 6 µM | 6 µM | 6 µM | 6 µM | 75% | > 20 µM | > 20 µM | 1% | 15 µM | 31% | 15 µM | 15 µM | 15 µM | Q3 | > 50% | > 50% | Q3 | Q3 | > 20 µM | 1% | Fibrin Selectivity [1]: 2; Fibrin Selectivity (LOG10) [1]: 0.38; Quadrant (FIG. 5b) ([5]; Table 3, screen at 10 μM): Q3; IC50 (primary rat microglia [7]): > 20 µM
3 | Cc1cc(NC(=O)C2=C(O)c3ccccc3S(=O)(=O)N2C)no1 [Isoxicam, reference compound] | 7 µM | 7 µM | 7 µM | 7 µM | 67% | > 20 µM | > 20 µM | 1% | > 20 µM | 30% | > 20 µM | > 20 µM | > 20 µM | Q3 | > 50% | > 50% | Q3 | Q3 | > 20 µM | 1% | Fibrin Selectivity [1]: 3; Fibrin Selectivity (LOG10) [1]: 0.43; Quadrant (FIG. 5b) ([5]; Table 3, screen at 10 μM): Q3; IC50 (primary rat microglia [7]): > 20 µM
4 | CC(=O)OCC(=O)[C@@]12N=C(C)O[C@@H]1C[C@H]1[C@@H]3CCC4=CC(=O)C=C[C@]4(C)[C@H]3[C@@H](O)C[C@@]12C [Deflazacort, reference compound] | < 0.001 µM | < 0.001 µM | < 0.001 µM | < 0.001 µM | 111% | 20 µM | 20 µM | 2% | 0.04 µM | 105% | 0.04 µM | 0.04 µM | 0.04 µM | Q2 | > 50% | > 50% | Q2 | Q2 | > 20 µM | 4% | Fibrin Selectivity [1]: 42; Fibrin Selectivity (LOG10) [1]: 1.63; IC50 [1, 23]: < 0.001 µM; Fibrin Selectivity (LOG10) ([1]; fibrin vs LPS, LOG10, Table 6): 1.63; Fibrin Selectivity ([1]; fibrin vs LPS, Table 6): 42; IC50 (in vitro [2]; cFib assay, Table 6): ≥ 20 µM; IC50 [4, 24]: 0.04 µM; Quadrant (FIG. 5b) ([5]; Table 3, screen at 10 μM): Q2; Quadrant (FIG. 5b) ([5]; microglia HTS, Table 6): Q2; IC50 (primary rat microglia [7]): > 20 µM; IC50 (primary rat microglia [7]; Table 6): > 20 µM
5 | CC(=O)OCC(=O)[C@@]1(O)CC[C@H]2[C@@H]3CCC4=CC(=O)CC[C@]4(C)[C@@]3(F)[C@@H](O)C[C@@]21C [Fludrocortisone acetate, reference compound] | < 0.001 µM | < 0.001 µM | < 0.001 µM | < 0.001 µM | 104% | > 20 µM | > 20 µM | 2% | 0.4 µM | 101% | 0.4 µM | 0.4 µM | 0.4 µM | Q2 | > 50% | > 50% | Q2 | Q2 | > 20 µM | 4% | Fibrin Selectivity [1]: 362; Fibrin Selectivity (LOG10) [1]: 2.56; IC50 [1, 23]: < 0.001 µM; IC50 ([1]; Table 7, read-out: fib_IC50): 0.002 µM; IC50 (in vitro [2]; cFib assay, Table 6): > 20 µM; IC50 [4, 24]: 0.4 µM; IC50 ([4]; Table 7, read-out: LPS_IC50): 0.002 µM; Quadrant (FIG. 5b) ([5]; Table 2, screen at 10 μM): Q2; Quadrant (FIG. 5b) ([5]; Table 3, screen at 10 μM): Q2; Activity [5]: fib/LPS; Quadrant (FIG. 5b) ([5]; microglia HTS, Table 6): Q2; IC50 (primary rat microglia [7]): > 20 µM; IC50 (primary rat microglia [7]; Table 6): > 20 µM
6 | CC1(C)O[C@@H]2C[C@H]3[C@@H]4C[C@H](F)C5=CC(=O)C=C[C@]5(C)[C@@]4(F)[C@@H](O)C[C@]3(C)[C@]2(C(=O)CO)O1 [Fluocinolone acetonide, reference compound] | < 0.001 µM |  | < 0.001 µM | < 0.001 µM | 105% |  | > 20 µM | 2% | < 0.001 µM | 104% | < 0.001 µM |  | < 0.001 µM | Q2 |  | > 50% | Q2 |  | > 20 µM | 4% | IC50 ([1]; Table 7, read-out: fib_IC50): 0.002 µM; inhibition at 10 µM ([1]; primary microglia HTS, fibrin stimulation, activation = cell size >800 μm2): -35%; Fibrin % cell toxicity (primary rat microglia [3]; toxicity = cell size <150 μm2): 1%; inhibition at 10 µM ([4]; 48 h, primary microglia HTS, LPS stimulation, activation = cell size >800 μm2): 10%; IC50 ([4]; Table 7, read-out: LPS_IC50): 0.002 µM; inhibition at 10 µM [5, 25]: > 50%; Quadrant (FIG. 5b) ([5]; Table 2, screen at 10 μM): Q2; Activity [5]: fib/LPS; LPS % cell toxicity (primary rat microglia [7]; toxicity = cell size <150 μm2): 0%
7 | C[C@H]1C[C@H]2[C@@H]3CCC4=CC(=O)C=C[C@]4(C)[C@@]3(F)[C@@H](O)C[C@]2(C)[C@@]1(O)C(=O)CO [Betamethasone, reference compound] | < 0.001 µM | < 0.001 µM | < 0.001 µM | < 0.001 µM | 103% | > 20 µM | > 20 µM |  | 0.01 µM | 94% | 0.01 µM | 0.01 µM | 0.01 µM | Q2 | > 50% | > 50% | Q2 | Q2 | > 20 µM |  | IC50 ([1]; Table 7, read-out: fib_IC50): 0.002 µM; inhibition at 10 µM ([1]; primary HTS, 10 μM, fibrin-stimulated primary microglia): -4%; IC50 (primary rat microglia [3]; Rattus norvegicus, Microglia, read-out: dead_IC50 (uM), Table 7, fibrin or LPS assay not specified): 2.08 µM; IC50 ([4]; Table 7, read-out: LPS_IC50): 0.002 µM; inhibition at 10 µM ([4]; primary HTS, 10 μM, LPS-stimulated primary microglia): -9%; Quadrant (FIG. 5b) ([5]; Table 2, screen at 10 μM): Q2; Quadrant (FIG. 5b) ([5]; Table 3, screen at 10 μM): Q2; Quadrant (FIG. 5b) ([5]; primary HTS, 10 μM): Q4; IC50 (primary rat microglia [7]): > 20 µM
8 | CN(C)CCc1c[nH]c2ccc(CS(=O)(=O)N3CCCC3)cc12 [Almotriptan, reference compound] | > 20 µM |  | > 20 µM | > 20 µM | 101% |  | > 20 µM | 2% | > 20 µM | 85% | > 20 µM |  | > 20 µM | Q2 |  | > 50% | Q2 | Q2 | > 20 µM | 1% | inhibition at 10 µM [5, 25]: > 50%
